Measured values taken from article PMC11702666, “The anti-COVID-19 drug Paxlovid crosses biological barriers of the placenta and brain in rats” (npj Viruses, 2024).
“Also recorded” adds a separate entry of the source. Like-named read-outs stand apart in the source and are kept apart here.

Legend:
[1] = oral; cited from earlier work
SARS-CoV-2 = test system: SARS-CoV-2; design: method as in PMID 34726479; conditions: 90% inhibition of viral replication, cited from earlier work
[2] = for nirmatrelvir concentration in dialysate sample: 60 min after nirmatrelvir 15 mg/kg i.v., representative sample
[3] = for nirmatrelvir concentration in dialysate sample: 60 min after nirmatrelvir 15 mg/kg i.v., representative sample; remark: listed apart in the source
in vivo [4] = conditions: female, Sprague-Dawley, rat, iv, pregnant rats; for AUC(0-t): AUClast; for Kp: AUCtissue/AUCblood (maternal blood-to-tissue transfer ratio); for clearance: CL (clearance); for MRT: MRT (mean residence time); for half-life: t1/2 (elimination half-life)
[5] = PBPK model LeiCNS-PK3.0; recommended dosing regimen; cited from earlier work
in vivo [6] = conditions: female, Sprague-Dawley, rat, iv, 15 mg/kg; for AUC(0-t): AUClast; for AUC(0-t) / clearance / Cmax / MRT / Tmax / half-life: nonpregnant female rats; for clearance: CL (clearance); for MRT: MRT (mean residence time); for half-life: t1/2 (elimination half-life)
in vivo [7] = conditions: male, Sprague-Dawley, rat, iv, 15 mg/kg; for AUC(0-t): AUClast; for AUC(0-t) / clearance / Cmax / MRT / Tmax / half-life: male rats; for clearance: CL (clearance); for MRT: MRT (mean residence time); for half-life: t1/2 (elimination half-life)
[8] = for Autosampler stability: 4°C for 6 hours; for Long-term stability: -20°C for 1 month; for Bench-top stability: room temperature for 6 hours; for Freeze‒thaw stability: three cycles
zebrafish embryo = zebrafish embryo model; therapeutic doses in humans; cited from earlier work
[9] = 15 mg/kg, amniotic fluid, nirmatrelvir 15 mg/kg i.v. alone
[10] = 15 mg/kg, amniotic fluid, nirmatrelvir 15 mg/kg i.v. plus ritonavir 7 mg/kg i.v.
[11] = 15 mg/kg, fetus, nirmatrelvir 15 mg/kg i.v. alone
[12] = 15 mg/kg, fetus, nirmatrelvir 15 mg/kg i.v. plus ritonavir 7 mg/kg i.v.
[13] = 15 mg/kg, maternal blood, nirmatrelvir 15 mg/kg i.v. alone
[14] = 15 mg/kg, maternal blood, nirmatrelvir 15 mg/kg i.v. plus ritonavir 7 mg/kg i.v.
[15] = 15 mg/kg, placenta, nirmatrelvir 15 mg/kg i.v. alone
[16] = 15 mg/kg, placenta, nirmatrelvir 15 mg/kg i.v. plus ritonavir 7 mg/kg i.v.
[17] = blood, nirmatrelvir 15 mg/kg i.v. alone
[18] = blood, nirmatrelvir 15 mg/kg i.v. plus ritonavir 7 mg/kg i.v.
[19] = brain, nirmatrelvir 15 mg/kg i.v. alone
[20] = brain, nirmatrelvir 15 mg/kg i.v. plus ritonavir 7 mg/kg i.v.
[21] = amniotic fluid dialysate, 5 ng/mL
[22] = amniotic fluid dialysate, 250 ng/mL
[23] = male rat blood dialysate, 5 ng/mL
[24] = male rat blood dialysate, 250 ng/mL
[25] = male rat brain dialysate, 5 ng/mL
[26] = male rat brain dialysate, 250 ng/mL
[27] = pregnant rat maternal blood dialysate, 5 ng/mL
[28] = pregnant rat maternal blood dialysate, 250 ng/mL

## CC(C)(C)[C@H](NC(=O)C(F)(F)F)C(=O)N1C[C@H]2[C@@H]([C@H]1C(=O)N[C@H](C#N)C[C@@H]1CCNC1=O)C2(C)C [Nirmatrelvir]
[1]
  bioavailability: approximately 50%
SARS-CoV-2
  unbound EC90: 0.0905 µg/mL
SARS-CoV-2; unbound
  EC90: 181 nM
[2]; blood dialysate
  nirmatrelvir concentration in dialysate sample: 78.01 ng/mL
[2]; brain dialysate
  nirmatrelvir concentration in dialysate sample: 36.36 ng/mL
[2]; male rats
  protein unbound nirmatrelvir concentrations in blood and brain versus EC90: all higher than the EC90
[3]; amniotic fluid dialysate
  nirmatrelvir concentration in dialysate sample: 27.61 ng/mL
[3]; fetus dialysate
  nirmatrelvir concentration in dialysate sample: 37 ng/mL
[3]; maternal blood dialysate
  nirmatrelvir concentration in dialysate sample: 344.8 ng/mL
[3]; placenta dialysate
  nirmatrelvir concentration in dialysate sample: 95.13 ng/mL
[3]; pregnant rats, regular dose of Paxlovid
  nirmatrelvir level in conceptus (fetus, placenta, amniotic fluid) versus EC90: higher than the EC90
In vivo [4]; [9]
  AUC(0-t): 4740 ng·h/mL
  Kp: 0.12 ± 0.03
  Cmax: 1840 ± 490 ng/mL
  MRT: 4.83 h
  Tmax: 1.05 h
  half-life: 2.78 ± 0.683 h
In vivo [4]; [10]
  AUC(0-t): 17200 ng·h/mL
  Cmax: 6590 ± 1840 ng/mL
  MRT: 7.62 h
  Tmax: 3.6 h
  half-life: 4.02 ± 1.75 h
In vivo [4]; [11]
  AUC(0-t): 2830 ng·h/mL
  Kp: 0.06 ± 0.01
  Cmax: 960 ± 190 ng/mL
  MRT: 5.13 h
  Tmax: 1.17 h
  half-life: 3.03 ± 1 h
In vivo [4]; [12]
  AUC(0-t): 5720 ng·h/mL
  Cmax: 1720 ± 600 ng/mL
  MRT: 21.1 h
  Tmax: 3.93 h
  half-life: 13.7 ± 9.1 h
In vivo [4]; [13]
  AUC(0-t): 52200 ng·h/mL
  clearance: 5 ± 0.4 mL/min/kg
  Cmax: 156000 ± 24000 ng/mL
  MRT: 0.8 h
  half-life: 0.25 ± 0.0167 h
In vivo [4]; [14]
  AUC(0-t): 120000 ng·h/mL
  clearance: 2.14 ± 0.15 mL/min/kg
  Cmax: 171000 ± 52300 ng/mL
  MRT: 3.22 h
  half-life: 0.667 ± 0.117 h
In vivo [4]; [15]
  AUC(0-t): 8010 ng·h/mL
  Kp: 0.15 ± 0.03
  Cmax: 3560 ± 320 ng/mL
  MRT: 2.53 h
  Tmax: 0.667 h
In vivo [4]; [16]
  AUC(0-t): 18000 ng·h/mL
  Cmax: 4400 ± 820 ng/mL
  MRT: 6.92 h
  Tmax: 2.2 h
  half-life: 4.27 ± 0.65 h
In vivo [4]; amniotic fluid, nirmatrelvir 15 mg/kg i.v. plus ritonavir 7 mg/kg i.v.
  Kp: 0.2 ± 0.07
In vivo [4]; fetus, nirmatrelvir 15 mg/kg i.v. plus ritonavir 7 mg/kg i.v.
  Kp: 0.06 ± 0.02
In vivo [4]; placenta, nirmatrelvir 15 mg/kg i.v. plus ritonavir 7 mg/kg i.v.
  Kp: 0.13 ± 0.02
[5]
  predicted brain penetration / effective concentrations against SARS-CoV-2: achieves effective concentrations against SARS-CoV-2 in human brain cells
In vivo [6]
  Kp: 0.21 ± 0.04
In vivo [6]; [17]
  AUC(0-t): 16800 ng·h/mL
  clearance: 16 ± 2.02 mL/min/kg
  Cmax: 35600 ± 2110 ng/mL
  MRT: 0.667 h
  half-life: 0.333 ± 0.0333 h
In vivo [6]; [18]
  AUC(0-t): 69400 ng·h/mL
  clearance: 3.73 ± 0.29 mL/min/kg
  Cmax: 107000 ± 7400 ng/mL
  MRT: 1.32 h
  half-life: 0.417 ± 0.0167 h
In vivo [6]; [19]
  AUC(0-t): 3120 ng·h/mL
  Cmax: 2420 ± 460 ng/mL
  MRT: 1.55 h
  Tmax: 0.333 h
  half-life: 1.08 ± 0.117 h
In vivo [6]; [20]
  AUC(0-t): 5280 ng·h/mL
  Cmax: 2330 ± 390 ng/mL
  MRT: 2.2 h
  Tmax: 0.6 h
  half-life: 1.07 ± 0.2 h
Nonpregnant female rats, blood, coadministration with ritonavir vs nirmatrelvir alone
  increase of Cmax in blood, combined vs alone: threefold
Nonpregnant rats
  protein unbound nirmatrelvir concentrations in blood and brain versus EC90: all higher than the EC90
In vivo [7]
  Kp: 0.26 ± 0.03
In vivo [7]; [17]
  AUC(0-t): 12900 ng·h/mL
  clearance: 21 ± 2.8 mL/min/kg
  Cmax: 26500 ± 4450 ng/mL
  MRT: 0.717 h
In vivo [7]; [18]
  AUC(0-t): 80500 ng·h/mL
  clearance: 3.16 ± 0.18 mL/min/kg
  Cmax: 94500 ± 27600 ng/mL
  MRT: 2.32 h
  half-life: 0.833 ± 0.15 h
In vivo [7]; [19]
  AUC(0-t): 3540 ng·h/mL
  Cmax: 2520 ± 320 ng/mL
  MRT: 1.53 h
  Tmax: 0.333 h
  half-life: 1.1 ± 0.117 h
In vivo [7]; [20]
  AUC(0-t): 5190 ng·h/mL
  Cmax: 2020 ± 350 ng/mL
  MRT: 3.4 h
  Tmax: 0.45 h
  half-life: 2.05 ± 0.367 h
[8]; [21]
  Autosampler stability: 101.84 ± 1.89%
  Long-term stability: 97.21 ± 0.39%
  Bench-top stability: 104.82 ± 1.50%
  Freeze‒thaw stability: 107.43 ± 5.37%
[8]; [22]
  Autosampler stability: 102.44 ± 2.35%
  Long-term stability: 93.43 ± 1.54%
  Bench-top stability: 98.60 ± 1.46%
  Freeze‒thaw stability: 99.39 ± 4.32%
[8]; fetus dialysate, 5 ng/mL
  Autosampler stability: 95.10 ± 0.47%
  Long-term stability: 95.20 ± 1.21%
  Bench-top stability: 102.37 ± 2.51%
  Freeze‒thaw stability: 107.56 ± 0.63%
[8]; fetus dialysate, 250 ng/mL
  Autosampler stability: 97.12 ± 1.94%
  Long-term stability: 91.79 ± 1.56%
  Bench-top stability: 101.02 ± 0.48%
  Freeze‒thaw stability: 98.02 ± 2.49%
[8]; [23]
  Autosampler stability: 95.56 ± 6.20%
  Long-term stability: 89.61 ± 1.00%
  Bench-top stability: 104.5 ± 1.73%
  Freeze‒thaw stability: 100.3 ± 3.40%
[8]; [24]
  Autosampler stability: 94.23 ± 4.18%
  Long-term stability: 88.54 ± 1.07%
  Bench-top stability: 97.60 ± 0.73%
  Freeze‒thaw stability: 88.57 ± 0.33%
[8]; [25]
  Autosampler stability: 92.51 ± 2.01%
  Long-term stability: 90.07 ± 2.77%
  Bench-top stability: 100.6 ± 0.37%
  Freeze‒thaw stability: 99.58 ± 1.02%
[8]; [26]
  Autosampler stability: 93.59 ± 4.41%
  Long-term stability: 87.36 ± 2.58%
  Bench-top stability: 95.79 ± 0.24%
  Freeze‒thaw stability: 92.01 ± 0.29%
[8]; placenta dialysate, 5 ng/mL
  Autosampler stability: 101.55 ± 6.56%
  Long-term stability: 97.38 ± 0.55%
  Bench-top stability: 100.37 ± 1.24%
  Freeze‒thaw stability: 101.85 ± 4.27%
[8]; placenta dialysate, 250 ng/mL
  Autosampler stability: 98.14 ± 3.84%
  Long-term stability: 88.97 ± 1.33%
  Bench-top stability: 98.87 ± 0.27%
  Freeze‒thaw stability: 100.83 ± 0.95%
[8]; [27]
  Autosampler stability: 102.98 ± 4.81%
  Long-term stability: 87.18 ± 0.87%
  Bench-top stability: 96.42 ± 2.53%
  Freeze‒thaw stability: 101.21 ± 2.66%
[8]; [28]
  Autosampler stability: 98.97 ± 4.80%
  Long-term stability: 87.65 ± 1.83%
  Bench-top stability: 98.68 ± 1.18%
  Freeze‒thaw stability: 105.98 ± 2.99%
Zebrafish embryo
  survival rates and morphological defects: does not affect survival rates or induce morphological defects; also recorded: did not affect survival rates or induce morphological defects
